Data published in patent publication US12139520B2 (priority 2020, dated 2024).
Bridge positions count the residues as written; N and C are the ends. Square brackets hold non-standard residues; d marks the D form. Peptide text beside a SMILES is read from it. Hyp = O=C(O)[C@@H]1C[C@@H](O)CN1; Cit = NC(=O)NCCC[C@H](N)C(=O)O

Assays:
hAMY3 receptor = molecular target: T1, hAMY3 receptor (Homo sapiens, UniProt O60896+P30988); assay: cAMP assay for in vitro receptor activation, hAMY3-R; type: cell-based; conditions: cAMP assay, hAMY3 receptor; read-out: hAMY3R EC50
T1 sequence (P30988 25-474): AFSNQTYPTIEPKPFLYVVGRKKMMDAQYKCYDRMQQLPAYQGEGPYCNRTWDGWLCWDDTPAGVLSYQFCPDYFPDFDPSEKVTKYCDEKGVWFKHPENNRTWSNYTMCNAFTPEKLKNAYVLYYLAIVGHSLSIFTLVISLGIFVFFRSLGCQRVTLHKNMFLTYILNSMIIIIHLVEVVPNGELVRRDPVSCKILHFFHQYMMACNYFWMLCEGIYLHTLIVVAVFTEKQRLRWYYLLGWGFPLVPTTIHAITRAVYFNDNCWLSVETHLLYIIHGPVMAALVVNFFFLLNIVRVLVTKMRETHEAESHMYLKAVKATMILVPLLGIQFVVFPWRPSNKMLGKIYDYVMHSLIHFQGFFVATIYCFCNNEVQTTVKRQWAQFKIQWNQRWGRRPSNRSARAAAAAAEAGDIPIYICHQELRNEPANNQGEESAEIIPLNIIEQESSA
T1 sequence (O60896 24-148 partner): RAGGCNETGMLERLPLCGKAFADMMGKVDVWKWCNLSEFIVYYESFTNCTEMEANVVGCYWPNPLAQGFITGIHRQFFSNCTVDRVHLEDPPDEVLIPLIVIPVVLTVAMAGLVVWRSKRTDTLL
Method in brief: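 Thawed cells from a sub-cloned monoclonal hAMY3-overexpressing line are plated in DPBS containing 0.05% casein and 0.5 mM IBMX. Test compounds are added immediately at graded doses for 30 min at room temperature. Reagents for cAMP detection are then added, and TR-FRET is recorded after one hour.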

[1] = Physical stability of peptide analogues (Thioflavin T fibrillation); type: physicochemical; conditions: maximum ThT signal normalized between hAMY maximum and buffer background; 40° C., shaking, four days; pH 7 per table title
Method in brief: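 1 h in 50 mM NaOAc pH 4 / 50 mM NaPi pH 7; + ThT 4 μM final; 40 °C, 700 rpm linear shake 5 min pre-read; ex 450, em 480 nm q10 min × 4 d; LOESS smoothing; max signal normalised to hAMY max vs buffer blank.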

hAM1 receptor = hAM1 receptor (Homo sapiens, UniProt O60895+Q16602); assay: cAMP assay for in vitro receptor activation, hAM1-R; type: cell-based; conditions: cAMP assay, hAM1 receptor; read-out: hAM1R EC50
Method in brief: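 cAMP accumulation was measured in a monoclonal cell line stably overexpressing the hAM1 receptor. Frozen aliquots were thawed and plated at 8000 cells/well in DPBS containing 0.05% casein and 0.5 mM IBMX.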

Sequence of hAM1 receptor (Q16602 23-461): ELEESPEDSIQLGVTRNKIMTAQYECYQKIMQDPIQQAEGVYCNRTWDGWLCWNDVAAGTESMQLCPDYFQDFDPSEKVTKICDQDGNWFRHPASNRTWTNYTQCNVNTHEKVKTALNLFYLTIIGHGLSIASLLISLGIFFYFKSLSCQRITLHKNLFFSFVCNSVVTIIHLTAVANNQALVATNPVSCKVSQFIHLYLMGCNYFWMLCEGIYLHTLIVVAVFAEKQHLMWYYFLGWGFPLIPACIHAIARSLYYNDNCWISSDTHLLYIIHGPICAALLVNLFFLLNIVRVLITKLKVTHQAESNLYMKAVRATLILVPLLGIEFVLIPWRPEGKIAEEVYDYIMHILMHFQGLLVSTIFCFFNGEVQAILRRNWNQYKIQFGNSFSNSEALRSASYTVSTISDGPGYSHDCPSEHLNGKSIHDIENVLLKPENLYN
Sequence of hAM1 receptor (O60895 43-175 partner): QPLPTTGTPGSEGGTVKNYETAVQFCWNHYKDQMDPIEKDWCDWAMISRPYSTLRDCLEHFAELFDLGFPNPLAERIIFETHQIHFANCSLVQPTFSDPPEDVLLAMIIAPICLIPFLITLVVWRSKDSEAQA

Row | EC50 (hAMY3 receptor) | Max ThT signal (%) [1] | EC50 (hAM1 receptor) | SMILES
1 | 0.03 nM | 17.450% | > 5000 nM | CC[C@H](C)[C@H](NC(=O)[C@H](CCC(N)=O)NC(=O)[C@H](Cc1c[nH]cn1)NC(=O)[C@H](C)NC(=O)[C@H](CC(C)C)NC(=O)[C@H](CCCNC(N)=O)NC(=O)[C@H](CCC(N)=O)NC(=O)[C@@H](NC(=O)[C@@H](NC(=O)[C@@H]1CSSC[C@H](NC(=O)CN)C(=O)N[C@@H](CCCNC(=N)N)C(=O)N[C@@H](Cc2ccccc2)C(=O)NCC(=O)N[C@@H]([C@@H](C)O)C(=O)N1)[C@@H](C)O)C(C)C)C(=O)N[C@@H](Cc1ccc(O)cc1)C(=O)N[C@@H](CCC(N)=O)C(=O)N[C@@H](Cc1ccccc1)C(=O)N[C@H](C(=O)N[C@@H](CC(=O)O)C(=O)N[C@@H](CCCCN)C(=O)N[C@@H](CC(=O)O)C(=O)N[C@@H](CCCCN)C(=O)N[C@@H](CC(=O)O)C(=O)N[C@@H](CC(N)=O)C(=O)N[C@H](C(=O)N[C@@H](C)C(=O)N1CCC[C@H]1C(=O)N[C@@H](CCCNC(=N)N)C(=O)N[C@H](C(=O)N[C@@H](CCCCN)C(=O)N[C@H](C(=O)N[C@@H](CO)C(=O)N1CCC[C@H]1C(=O)N[C@@H](CC(N)=O)C(=O)NCC(=O)N1C[C@H](O)C[C@H]1C(N)=O)C(C)C)[C@@H](C)O)C(C)C)[C@@H](C)O [compound 288] (H-GCRFGTCTVQ[Cit]LAHQIYQFTDKDKDNVAPRTKVSPNG[Hyp]-NH2; disulfide 2-7; N-terminus assumed)
2 | 0.068 nM | 15.500% | > 5000 nM | CC[C@H](C)[C@H](NC(=O)[C@H](CCC(N)=O)NC(=O)[C@H](Cc1c[nH]cn1)NC(=O)[C@H](C)NC(=O)[C@H](CC(C)C)NC(=O)[C@H](Cc1c[nH]c2ccccc12)NC(=O)[C@H](CCC(N)=O)NC(=O)[C@@H](NC(=O)[C@@H](NC(=O)[C@@H]1CSSC[C@H](NC(=O)CN)C(=O)N[C@@H](CCCNC(=N)N)C(=O)N[C@@H]([C@@H](C)O)C(=O)NCC(=O)N[C@@H]([C@@H](C)O)C(=O)N1)[C@@H](C)O)C(C)C)C(=O)N[C@@H](Cc1ccc(O)cc1)C(=O)N[C@@H](CCC(N)=O)C(=O)N[C@@H](Cc1ccccc1)C(=O)N[C@H](C(=O)N[C@@H](CC(=O)O)C(=O)N[C@@H](CCCCN)C(=O)N[C@@H](CC(=O)O)C(=O)N[C@@H](CCCCN)C(=O)N[C@@H](CC(=O)O)C(=O)N[C@@H](CC(N)=O)C(=O)N[C@H](C(=O)N[C@@H](C)C(=O)N1CCC[C@H]1C(=O)N[C@@H](CCCNC(=N)N)C(=O)N[C@@H](CO)C(=O)N[C@@H](CCCCN)C(=O)N[C@H](C(=O)NCC(=O)N1CCC[C@H]1C(=O)N[C@@H](CC(N)=O)C(=O)NCC(=O)N1C[C@H](O)C[C@H]1C(N)=O)C(C)C)C(C)C)[C@@H](C)O [compound 347] (H-GCRTGTCTVQWLAHQIYQFTDKDKDNVAPRSKVGPNG[Hyp]-NH2; disulfide 2-7; N-terminus assumed)
3 | 0.014 nM | 9.550% | > 5000 nM | CC[C@H](C)[C@H](NC(=O)[C@H](CCC(N)=O)NC(=O)[C@H](Cc1c[nH]cn1)NC(=O)[C@H](C)NC(=O)[C@H](CC(C)C)NC(=O)[C@H](CCCNC(N)=O)NC(=O)[C@H](CCC(N)=O)NC(=O)[C@@H](NC(=O)[C@@H](NC(=O)[C@@H]1CSSC[C@H](NC(=O)[C@@H](N)CCCCN)C(=O)N[C@@H](CC(N)=O)C(=O)N[C@@H]([C@@H](C)O)C(=O)N[C@@H](C)C(=O)N[C@@H]([C@@H](C)O)C(=O)N1)[C@@H](C)O)C(C)C)C(=O)N[C@@H](Cc1ccc(O)cc1)C(=O)N[C@@H](CCC(N)=O)C(=O)N[C@@H](Cc1ccccc1)C(=O)N[C@H](C(=O)N[C@@H](CC(=O)O)C(=O)N[C@@H](CCCCN)C(=O)N[C@@H](CC(=O)O)C(=O)N[C@@H](CCCCN)C(=O)N[C@@H](CC(=O)O)C(=O)N[C@@H](CC(N)=O)C(=O)N[C@H](C(=O)N[C@@H](C)C(=O)N[C@@H](C)C(=O)N1CCC[C@H]1C(=O)N[C@H](C(=O)N[C@@H](CC(N)=O)C(=O)N[C@H](C(=O)NCC(=O)N[C@@H](CO)C(=O)N[C@@H](CC(N)=O)C(=O)NCC(=O)N1C[C@H](O)C[C@H]1C(N)=O)C(C)C)[C@@H](C)O)C(C)C)[C@@H](C)O [compound 262] (H-KCNTATCTVQ[Cit]LAHQIYQFTDKDKDNVAAPTNVGSNG[Hyp]-NH2; disulfide 2-7; N-terminus assumed)
4 | 0.007 nM | 18.650% | > 5000 nM | CC[C@H](C)[C@H](NC(=O)[C@H](CCC(N)=O)NC(=O)[C@H](CCC(=O)O)NC(=O)[C@H](C)NC(=O)[C@H](CC(C)C)NC(=O)[C@H](CCCNC(N)=O)NC(=O)[C@H](C)NC(=O)[C@@H](NC(=O)[C@@H](NC(=O)[C@@H]1CSSC[C@H](NC(=O)[C@@H](N)CCCNC(=N)N)C(=O)N[C@@H](CCC(N)=O)C(=O)N[C@@H]([C@@H](C)O)C(=O)N[C@@H](CO)C(=O)N[C@@H]([C@@H](C)O)C(=O)N1)[C@@H](C)O)C(C)C)C(=O)N[C@@H](C)C(=O)N[C@@H](CCC(N)=O)C(=O)N[C@@H](Cc1ccc(O)cc1)C(=O)N[C@H](C(=O)N[C@@H](CC(=O)O)C(=O)N[C@@H](CCCCN)C(=O)N[C@@H](CC(=O)O)C(=O)N[C@@H](CCCCN)C(=O)N[C@@H](CC(=O)O)C(=O)N[C@@H](CCC(N)=O)C(=O)N[C@H](C(=O)N[C@@H](C)C(=O)N1CCC[C@H]1C(=O)N1CCC[C@H]1C(=O)N[C@H](C(=O)N[C@@H](CC(N)=O)C(=O)N[C@H](C(=O)NCC(=O)N[C@@H](CO)C(=O)N[C@@H](CC(N)=O)C(=O)N[C@@H](CO)C(=O)N1C[C@H](O)C[C@H]1C(N)=O)C(C)C)[C@@H](C)O)C(C)C)[C@@H](C)O [compound 256] (H-RCQTSTCTVA[Cit]LAEQIAQYTDKDKDQVAPPTNVGSNS[Hyp]-NH2; disulfide 2-7; N-terminus assumed)
5 | 0.076 nM | 17.850% | > 5000 nM | CC[C@H](C)[C@H](NC(=O)[C@H](CCC(N)=O)NC(=O)[C@H](Cc1c[nH]cn1)NC(=O)[C@H](C)NC(=O)[C@H](CC(C)C)NC(=O)[C@H](CCCNC(N)=O)NC(=O)[C@H](CCC(N)=O)NC(=O)[C@@H](NC(=O)[C@@H](NC(=O)[C@@H]1CSSC[C@H](NC(=O)CN)C(=O)N[C@@H](CCCNC(=N)N)C(=O)N[C@@H](Cc2ccccc2)C(=O)NCC(=O)N[C@@H]([C@@H](C)O)C(=O)N1)[C@@H](C)O)C(C)C)C(=O)N[C@@H](Cc1ccc(O)cc1)C(=O)N[C@@H](CCC(N)=O)C(=O)N[C@@H](Cc1ccccc1)C(=O)N[C@H](C(=O)N[C@@H](CC(=O)O)C(=O)N[C@@H](CCCCN)C(=O)N[C@@H](CC(=O)O)C(=O)N[C@@H](CCCCN)C(=O)N[C@@H](CC(=O)O)C(=O)N[C@@H](CC(N)=O)C(=O)N[C@H](C(=O)N[C@@H](C)C(=O)N1CCC[C@H]1C(=O)N[C@@H](CCCNC(=N)N)C(=O)N[C@@H](CO)C(=O)N[C@@H](CC(N)=O)C(=O)N[C@H](C(=O)N[C@@H](CO)C(=O)N1CCC[C@H]1C(=O)N[C@@H](CCC(N)=O)C(=O)NCC(=O)N1C[C@H](O)C[C@H]1C(N)=O)[C@@H](C)CC)C(C)C)[C@@H](C)O [compound 300] (H-GCRFGTCTVQ[Cit]LAHQIYQFTDKDKDNVAPRSNISPQG[Hyp]-NH2; disulfide 2-7; N-terminus assumed)
6 | 0.012 nM | 17.000% | > 5000 nM | CC[C@H](C)[C@H](NC(=O)[C@H](CCC(N)=O)NC(=O)[C@H](Cc1c[nH]cn1)NC(=O)[C@H](C)NC(=O)[C@H](CC(C)C)NC(=O)[C@H](Cc1c[nH]c2ccccc12)NC(=O)[C@H](CCC(N)=O)NC(=O)[C@@H](NC(=O)[C@@H](NC(=O)[C@@H]1CSSC[C@H](NC(=O)[C@@H](N)CCCCN)C(=O)N[C@@H](CC(N)=O)C(=O)N[C@@H]([C@@H](C)O)C(=O)N[C@@H](C)C(=O)N[C@@H]([C@@H](C)O)C(=O)N1)[C@@H](C)O)C(C)C)C(=O)N[C@@H](Cc1ccc(O)cc1)C(=O)N[C@@H](CCC(N)=O)C(=O)N[C@@H](Cc1ccccc1)C(=O)N[C@H](C(=O)N[C@@H](CC(=O)O)C(=O)N[C@@H](CCCCN)C(=O)N[C@@H](CC(=O)O)C(=O)N[C@@H](CCCCN)C(=O)N[C@@H](CC(=O)O)C(=O)N[C@@H](CC(N)=O)C(=O)N[C@H](C(=O)N[C@@H](C)C(=O)N1CCC[C@H]1C(=O)N[C@@H](CCCNC(=N)N)C(=O)N[C@H](C(=O)N[C@@H](CCCCN)C(=O)N[C@H](C(=O)NCC(=O)N[C@@H](CO)C(=O)N[C@@H](CC(N)=O)C(=O)NCC(=O)N1C[C@H](O)C[C@H]1C(N)=O)C(C)C)[C@@H](C)O)C(C)C)[C@@H](C)O [compound 312] (H-KCNTATCTVQWLAHQIYQFTDKDKDNVAPRTKVGSNG[Hyp]-NH2; disulfide 2-7; N-terminus assumed)
